# Active and inactive are the calls of the source.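 The calls were made as follows: active = IC50 at or below 20 µM; inactive = the rest.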
# Test system: 697 B-cell NF-kB luciferase, PMA/ionomycin, luminescence 16 h
# Assay: inhibition of PMA/ionomycin-stimulated NF-kB luciferase reporter, SAR follow-up, B- and T-cell screen hits, 697 cells, luminescence (AID 504489)
row,IC50,Structure (SMILES)
1,2210 nM,Cc1ccc(S(=O)(=O)Nc2cccc3cccnc23)cc1
2,2740 nM,Cc1ccc(S(=O)(=O)Nc2cccc3ccc(C)nc23)cc1
3,2580 nM,COc1cc(NS(=O)(=O)c2ccc(C)cc2)c2ncccc2c1
4,> 79000 nM (inactive),Cc1ccc2cccc(NS(=O)(=O)c3ccccc3)c2n1
5,1400 nM,O=S(=O)(Nc1cccc2cccnc12)c1ccccc1
6,1290 nM,COc1cc(NS(=O)(=O)c2ccccc2)c2ncccc2c1
7,> 79000 nM (inactive),Nc1cccc2cccnc12
8,> 79000 nM (inactive),Cc1ccc2cccc(N)c2n1
9,> 79000 nM (inactive),COc1cc(N)c2ncccc2c1

# — PubChem BioAssay AID504489 (Sanford-Burnham Center for Chemical Genomics, 2011)
